Data published in US20250276089A1, “CO-DELIVERY OF INHIBITORY NUCLEIC ACIDS AND GENOME EDITORS FOR TUMOR THERAPY” (The Board of Regents of The University of Texas System, priority 2022, published 2025).

System: tumor cells
Assay: mRNA delivery efficacy in tumor cells treated with an FAK inhibitor plus siCtrl+mRNA-LNPs
Type: cell-based
Conditions: co-administered with siCtrl+mRNA-LNPs

## CS(=O)(=O)c1cccc(CNc2nc(Nc3ccc4c(c3)CCC(=O)N4)ncc2C(F)(F)F)c1 [FAK inhibitor, PF-573228]
  mRNA delivery efficacy and protein expression: enhanced
